# Measurements published in US4007282A, “Lowering lipid and sugar levels in the blood with a bis(4-hydroxyphenyl)alkanoic acid or ester thereof” (Hoechst Aktiengesellschaft, priority 1972, dated 1977).
# Like-named read-outs stand apart in the source and are kept apart here.
# Experiments:
# normolipemic rats = experiment: Reduction of serum lipid values in normolipemic rats (8 days oral); format: in vivo, rat; details: 8 doses, male rats; for serum cholesterol, change in percentage (A: referred to the initial value) / serum triglyceride, change in percentage (A: referred to the initial value): column A; for serum cholesterol, change in percentage (B: referred to the untreated control group) / serum triglyceride, change in percentage (B: referred to the untreated control group): column B
# Protocol: 1. Male rats having a normal serum lipid content were treated for eight days with different daily doses mentioned in Table 1. The values given in that Table stand for a change in the serum concentrations of certain lipid classes. The doses administered per os by means of an esophageal sound were 100, 30 and 10 mg/kg/day. Generally, prior to and after the treatment, blood samples were taken and the concentration of cholesterol in the serum was determined according to the method of Lauber and Richterich and that of triglycerides according to the method of Eggstein and Kreutz. In the examples of the following Table 1, the changes in the serum lipid values due to the treatment with the substances of the invention are defined as follows:
# a. The changes in percent in the final value of the treated group, referred to the initial value of the treated group, the initial value being 100 percent, and
# b. the change in the final value of the treated group, referred to the final value of an accompanying untreated control group, the untreated control group's value being defined as 100 percent. Thus, the value given in columns A is the change in percentage referred to the initial value, whereas the value given in columns B is the change in percentage of the treated group, referred to the untreated control group.
# [1] = tested on: dietetic-medicamentous hyperlipemia of male rats; experiment: Action on the dietetic-medicamentous hyperlipemia of male rats; format: in vivo; details: Rattus norvegicus, po, 192 h, 100 mg/kg/day p.o., 8 days, male rats on cholesterol diet
# Excerpt: All the animals were fed with a diet food containing 2% of cholesterol, 2% of sodium cholate, 0.3% of methyl-thiouracil, 20% of coco fat and 44% of cane sugar. The serum lipid concentration of the animals treated with the compounds of the invention was compared to that of an untreated control group on the same diet, which diet causes the serum cholesteral concentration to rise within 1 week to about 10 times the initial value, that of the serum triglycerides to 3 times and that of the phospho-lipids in the serum to 4 times the initial value. The lipid phosphorus was determined according to the method of Messrs. Boehringer Mannheim W. Germany. At the same time as the diet was offered, the compounds of the invention were administered once a day to groups of rats, each containing 10 animals, over a period of 8 days by means of an esophageal sound. The change in percentage in the serum lipid concentration as compared to the control group (diet without active substance) is indicated in Table 2.
# [2] = tested on: hypertriglyceridemia induced by carbohydrates in male rats; experiment: Action on the hypertriglyceridemia induced by carbohydrates (fructose) in male rats; format: in vivo; details: Rattus norvegicus, 72 h, 3-day oral pre-treatment, vs untreated control, read-out: Change in percentage of hypertriglyceridemia induced by carbohydrates
# [3] = tested on: rats that had been fed fructose doses; experiment: Hypoglycemic activity: lowering of the blood sugar level in rats fed fructose doses; format: in vivo, rat; details: 100 mg/kg once a day over 3 days, 24 hours after last administration, vs placebo control group
# Protocol: The hypoglycemic activity of some bis(4-hydroxy-phenyl) alkanoic acid derivatives of formulae I and II could be established by administering once a day, over 3 days, 100 mg of the active compound per kg of test animal to rats that had been fed fructose doses and by taking blood samples 24 hours after the last administration in order to determine the blood sugar level by means of an autoanalyzer.
# The lowering of the blood sugar content indicated in following Table 4 refers to a control group treated with placebos (blank doses).
# mice = details: Table 3
# in vivo = details: mouse, po
smiles,measurement,setting,value
"CC(C)(C)c1cc(C(C(=O)O)c2cc(C(C)(C)C)c(O)c(C(C)(C)C)c2)cc(C(C)(C)C)c1O [Example 3, Bis(4'-hydroxy-3',5'-di-tert.butyl-phenyl)ethanoic acid]","serum cholesterol, change in percentage (A: referred to the initial value)",normolipemic rats; 10 mg/kg/day p.o.,-24%
same,"serum cholesterol, change in percentage (B: referred to the untreated control group)",normolipemic rats; 10 mg/kg/day p.o.,-21%
same,"serum triglyceride, change in percentage (B: referred to the untreated control group)",normolipemic rats; 10 mg/kg/day p.o.,-29%
same,"serum cholesterol, change in percentage (A: referred to the initial value)",normolipemic rats; 30 mg/kg/day p.o.,-32%
same,"serum triglyceride, change in percentage (A: referred to the initial value)",normolipemic rats; 30 mg/kg/day p.o.,-39%
same,"serum cholesterol, change in percentage (B: referred to the untreated control group)",normolipemic rats; 30 mg/kg/day p.o.,-22%
same,"serum triglyceride, change in percentage (B: referred to the untreated control group)",normolipemic rats; 30 mg/kg/day p.o.,-46%
same,"serum cholesterol, change in percentage (A: referred to the initial value)",normolipemic rats; 100 mg/kg/day p.o.,-61%
same,"serum triglyceride, change in percentage (A: referred to the initial value)",normolipemic rats; 100 mg/kg/day p.o.,-70%
same,"serum cholesterol, change in percentage (B: referred to the untreated control group)",normolipemic rats; 100 mg/kg/day p.o.,-52%
same,"serum triglyceride, change in percentage (B: referred to the untreated control group)",normolipemic rats; 100 mg/kg/day p.o.,-60%
same,change in vivo at 100 mg/kg,"[1]; read-out: serum cholesterol, change in percentage as compared to the control group",-23%
same,change in vivo at 100 mg/kg,"[1]; read-out: serum lipid phosphorus, change in percentage as compared to the control group",-26%
same,change in vivo at 100 mg/kg,"[1]; read-out: serum triglyceride, change in percentage as compared to the control group",-44%
same,change in vivo at 30 mg/kg,[2]; 30 mg/kg,-36%
same,change in vivo at 100 mg/kg,[2]; 100 mg/kg,-37%
same,lowering of the blood sugar level in per cent,[3],-15 per cent
same,LD50 mice p.o.,mice,6000 to 8000 mg/kg
same,LD50,in vivo,6000 to 8000 mg/kg
